From US12077503B2, “Substituted cyclic amides and their use as herbicides” (FMC CORPORATION, priority 2015, dated 2024)

Key:
Format in all cases: in vivo
[1] = test system: pigweed (Amaranthus retroflexus); test: Test A preemergence; conditions: for Plant response rating, Pigweed: 125 g ai/ha; for Pigweed plant response rating (0 to 100 scale, 0 is no effect, 100 is complete control): 500 g ai/ha, visual injury approx. 10 d
Excerpt: (§1) Seeds of plant species selected from barnyardgrass (Echinochloa crus-galli), Kochia (Kochia scoparia), ragweed (common ragweed, Ambrosia elatior), ryegrass, Italian (Italian ryegrass, Lolium multiflorum), crabgrass, large (Digitaria sanguinalis), giant foxtail (Setaria faberii), green foxtail (Setaria viridis), morningglory (Ipomoea spp.), pigweed (Amaranthus retroflexus), velvetleaf (Abutilon theophrasti), wheat (Triticum aestivum), and corn (Zea mays) were planted into a blend of loam soil and sand and treated preemergence with a directed soil spray using test chemicals formulated in anon-phytotoxic solvent mixture which included a surfactant.
(§2) At the same time, plants selected from these crop and weed species and also blackgrass (Alopecurus myosuroides), and Galium (catchweed bedstraw, Galium aparine) were planted in pots containing the same blend of loam soil and sand and treated with postemergence applications of test chemicals formulated in the same manner. Plants ranged in height from 2 to 10 cm and were in the one- to two-leaf stage for the postemergence treatment. Treated plants and untreated controls were maintained in a greenhouse for approximately 10 d, after which time all treated plants were compared to untreated controls and visually evaluated for injury. Plant response ratings, summarized in Table A, are based on a 0 to 100 scale where 0 is no effect and 100 is complete control. A dash (-) response means no test result.

[2] = test system: ragweed (common ragweed, Ambrosia elatior); test: Test A preemergence; conditions: for Plant response rating, Ragweed: 125 g ai/ha; for Ragweed plant response rating (0 to 100 scale, 0 is no effect, 100 is complete control): 500 g ai/ha, visual injury approx. 10 d
Excerpt: as §1, §2

Kochia (Kochia scoparia) [3] = test: Test A preemergence; conditions: for Plant response rating, Kochia: 125 g ai/ha; for Kochia plant response rating (0 to 100 scale, 0 is no effect, 100 is complete control): 500 g ai/ha, visual injury approx. 10 d
Excerpt: as §1, §2

[4] = test system: ryegrass, Italian (Italian ryegrass, Lolium multiflorum); test: Test A preemergence; conditions: for Plant response rating, Ryegrass, Italian: 125 g ai/ha; for Ryegrass, Italian plant response rating (0 to 100 scale, 0 is no effect, 100 is complete control): 500 g ai/ha, visual injury approx. 10 d
Excerpt: as §1, §2

[5] = test system: giant foxtail (Setaria faberii); test: Test A preemergence; conditions: for Plant response rating, Foxtail, Giant: 125 g ai/ha; for Foxtail, Giant plant response rating (0 to 100 scale, 0 is no effect, 100 is complete control): 500 g ai/ha, visual injury approx. 10 d
Excerpt: as §1, §2

[6] = test system: barnyardgrass (Echinochloa crus-galli); test: Test A preemergence; conditions: for Plant response rating, Barnyardgrass: 125 g ai/ha; for Barnyardgrass plant response rating (0 to 100 scale, 0 is no effect, 100 is complete control): 500 g ai/ha, visual injury approx. 10 d
Excerpt: as §1, §2

corn (Zea mays) = test: Test A postemergence; conditions: for Corn plant response rating: 125 g ai/ha, visual injury rating on 0 to 100 scale (0 no effect, 100 complete control), approx. 10 d; for Plant response rating, Corn: 500 g ai/ha
Excerpt: as §1, §2

[7] = test system: blackgrass (Alopecurus myosuroides); test: Test A postemergence; conditions: for Blackgrass plant response rating: 125 g ai/ha, visual injury rating on 0 to 100 scale (0 no effect, 100 complete control), approx. 10 d; for Plant response rating, Blackgrass: 500 g ai/ha
Excerpt: as §1, §2

[8] = test system: pigweed (Amaranthus retroflexus); test: Test A postemergence; conditions: for Pigweed plant response rating: 125 g ai/ha, visual injury rating on 0 to 100 scale (0 no effect, 100 complete control), approx. 10 d; for Plant response rating, Pigweed: 500 g ai/ha
Excerpt: as §1, §2

[9] = test system: ragweed (common ragweed, Ambrosia elatior); test: Test A postemergence; conditions: for Ragweed plant response rating: 125 g ai/ha, visual injury rating on 0 to 100 scale (0 no effect, 100 complete control), approx. 10 d; for Plant response rating, Ragweed: 500 g ai/ha
Excerpt: as §1, §2

[10] = test system: wheat (Triticum aestivum); test: Test A postemergence; conditions: for Wheat plant response rating: 125 g ai/ha, visual injury rating on 0 to 100 scale (0 no effect, 100 complete control), approx. 10 d; for Plant response rating, Wheat: 500 g ai/ha
Excerpt: as §1, §2

Kochia (Kochia scoparia) [11] = test: Test A postemergence; conditions: for Kochia plant response rating: 125 g ai/ha, visual injury rating on 0 to 100 scale (0 no effect, 100 complete control), approx. 10 d; for Plant response rating, Kochia: 500 g ai/ha
Excerpt: as §1, §2

[12] = test system: ryegrass, Italian (Italian ryegrass, Lolium multiflorum); test: Test A postemergence; conditions: for Ryegrass, Italian plant response rating: 125 g ai/ha, visual injury rating on 0 to 100 scale (0 no effect, 100 complete control), approx. 10 d; for Plant response rating, Ryegrass, Italian: 500 g ai/ha
Excerpt: as §1, §2

[13] = test system: giant foxtail (Setaria faberii); test: Test A postemergence; conditions: for Foxtail, Giant plant response rating: 125 g ai/ha, visual injury rating on 0 to 100 scale (0 no effect, 100 complete control), approx. 10 d; for Plant response rating, Foxtail, Giant: 500 g ai/ha
Excerpt: as §1, §2

[14] = test system: Galium (catchweed bedstraw, Galium aparine); test: Test A postemergence; conditions: for Galium plant response rating: 125 g ai/ha, visual injury rating on 0 to 100 scale (0 no effect, 100 complete control), approx. 10 d; for Plant response rating, Galium: 500 g ai/ha
Excerpt: as §1, §2

[15] = test system: barnyardgrass (Echinochloa crus-galli); test: Test A postemergence; conditions: for Barnyardgrass plant response rating: 125 g ai/ha, visual injury rating on 0 to 100 scale (0 no effect, 100 complete control), approx. 10 d; for Plant response rating, Barnyardgrass: 500 g ai/ha
Excerpt: as §1, §2

[16] = test system: ducksalad (Heteranthera limosa); test: Test B flooded paddy test; conditions: Flood, 0 to 100 scale where 0 is no effect and 100 is complete control, 13 to 15 d
Outline: (§3)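 Plants at 2-leaf stage flooded to 3 cm above soil, with compounds applied directly to paddy water and that depth maintained. Plants kept in greenhouse 13–15 d. Visual rating versus controls on a 0 (no effect) to 100 (complete control) scale.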

[17] = test system: sedge, umbrella (small-flower umbrella sedge, Cyperus difformis); test: Test B flooded paddy test; conditions: Flood, 0 to 100 scale where 0 is no effect and 100 is complete control, 13 to 15 d
Outline: as §3

rice (Oryra sativa) = test: Test B flooded paddy test; conditions: Flood, 0 to 100 scale where 0 is no effect and 100 is complete control, 13 to 15 d
Outline: as §3

[18] = test system: barnyardgrass (Echinochloa crus-galli); test: Test B flooded paddy test; conditions: Flood, 0 to 100 scale where 0 is no effect and 100 is complete control, 13 to 15 d
Outline: as §3

[19] = Preemergence, visual injury after approximately 10 d, 0 to 100 scale where 0 is no effect and 100 is complete control
[20] = Postemergence, 0 to 100 scale where 0 is no effect and 100 is complete control
[21] = preemergence, 0 to 100 scale (0 no effect, 100 complete control)
[22] = postemergence, 0 to 100 scale, 0 no effect, 100 complete control

COCc1cccc(C2CNC(=O)C2C(=O)Nc2ccc(F)cc2F)c1 (stereo not drawn) [Compound 499]
Plant response rating, Pigweed [1, 19]: 0
Pigweed plant response rating (0 to 100 scale, 0 is no effect, 100 is complete control) ([1]; Preemergence): 0
Plant response rating, Ragweed [2, 19]: 0
Ragweed plant response rating (0 to 100 scale, 0 is no effect, 100 is complete control) ([2]; Preemergence): 0
Plant response rating, Kochia (Kochia (Kochia scoparia) [3]; [19]): 0
Kochia plant response rating (0 to 100 scale, 0 is no effect, 100 is complete control) (Kochia (Kochia scoparia) [3]; Preemergence): 30
Plant response rating, Ryegrass, Italian [4, 19]: 0
Ryegrass, Italian plant response rating (0 to 100 scale, 0 is no effect, 100 is complete control) ([4]; Preemergence): 0
Plant response rating, Foxtail, Giant [5, 19]: 30
Foxtail, Giant plant response rating (0 to 100 scale, 0 is no effect, 100 is complete control) ([5]; Preemergence): 90
Plant response rating, Barnyardgrass [6, 19]: 30
Barnyardgrass plant response rating (0 to 100 scale, 0 is no effect, 100 is complete control) ([6]; Preemergence): 90
Corn plant response rating (corn (Zea mays); postemergence): 0
Plant response rating, Corn (corn (Zea mays); [20]): 0
Blackgrass plant response rating ([7]; postemergence): 0
Plant response rating, Blackgrass [7, 20]: 0
Pigweed plant response rating ([8]; postemergence): 0
Plant response rating, Pigweed [8, 20]: 0
Ragweed plant response rating ([9]; postemergence): 0
Plant response rating, Ragweed [9, 20]: 0
Wheat plant response rating ([10]; postemergence): 0
Plant response rating, Wheat [10, 20]: 0
Kochia plant response rating (Kochia (Kochia scoparia) [11]; postemergence): 0
Plant response rating, Kochia (Kochia (Kochia scoparia) [11]; [20]): 0
Ryegrass, Italian plant response rating ([12]; postemergence): 0
Plant response rating, Ryegrass, Italian [12, 20]: 0
Foxtail, Giant plant response rating ([13]; postemergence): 20
Plant response rating, Foxtail, Giant [13, 20]: 30
Galium plant response rating ([14]; postemergence): 0
Plant response rating, Galium [14, 20]: 40
Barnyardgrass plant response rating ([15]; postemergence): 30
Plant response rating, Barnyardgrass [15, 20]: 80
Plant response rating, Ducksalad ([16]; 250 g ai/ha): 80
Plant response rating, Sedge, Umbrella ([17]; 250 g ai/ha): 0
Plant response rating, Rice (rice (Oryra sativa); 250 g ai/ha): 15
Plant response rating, Barnyardgrass ([18]; 250 g ai/ha): 50

Cc1ccc(F)c(NC(=O)C2C(=O)NCC2c2ccc(F)c(F)c2)c1 (stereo not drawn) [Compound 408]
Plant response rating, Pigweed [1, 21]: 0
Pigweed plant response rating (0 to 100 scale, 0 is no effect, 100 is complete control) ([1]; Preemergence): 0
Plant response rating, Ragweed [2, 21]: 0
Ragweed plant response rating (0 to 100 scale, 0 is no effect, 100 is complete control) ([2]; Preemergence): 0
Plant response rating, Kochia (Kochia (Kochia scoparia) [3]; [21]): 0
Kochia plant response rating (0 to 100 scale, 0 is no effect, 100 is complete control) (Kochia (Kochia scoparia) [3]; Preemergence): 0
Plant response rating, Ryegrass, Italian [4, 21]: 0
Ryegrass, Italian plant response rating (0 to 100 scale, 0 is no effect, 100 is complete control) ([4]; Preemergence): 0
Plant response rating, Foxtail, Giant [5, 21]: 0
Foxtail, Giant plant response rating (0 to 100 scale, 0 is no effect, 100 is complete control) ([5]; Preemergence): 0
Plant response rating, Barnyardgrass [6, 21]: 0
Barnyardgrass plant response rating (0 to 100 scale, 0 is no effect, 100 is complete control) ([6]; Preemergence): 0
Corn plant response rating (corn (Zea mays); postemergence): 0
Plant response rating, Corn (corn (Zea mays); [22]): 0
Blackgrass plant response rating ([7]; postemergence): 0
Plant response rating, Blackgrass [7, 22]: 0
Pigweed plant response rating ([8]; postemergence): 0
Plant response rating, Pigweed [8, 22]: 0
Ragweed plant response rating ([9]; postemergence): 0
Plant response rating, Ragweed [9, 22]: 0
Wheat plant response rating ([10]; postemergence): 0
Plant response rating, Wheat [10, 22]: 0
Kochia plant response rating (Kochia (Kochia scoparia) [11]; postemergence): 0
Plant response rating, Kochia (Kochia (Kochia scoparia) [11]; [22]): 0
Ryegrass, Italian plant response rating ([12]; postemergence): 0
Plant response rating, Ryegrass, Italian [12, 22]: 0
Foxtail, Giant plant response rating ([13]; postemergence): 0
Plant response rating, Foxtail, Giant [13, 22]: 0
Galium plant response rating ([14]; postemergence): 0
Plant response rating, Galium [14, 22]: 0
Barnyardgrass plant response rating ([15]; postemergence): 0
Plant response rating, Barnyardgrass [15, 22]: 0
Plant response rating, Ducksalad ([16]; 500 g ai/ha): 0
Plant response rating, Sedge, Umbrella ([17]; 500 g ai/ha): 0
Plant response rating, Rice (rice (Oryra sativa); 500 g ai/ha): 0
Plant response rating, Barnyardgrass ([18]; 500 g ai/ha): 0
